Columns and labels:
[1] = test system: three-dimensional hepatic tissue consisting only of human hepatocytes (PXB cells); assay: ATP assay (CellTiter Glo 3D) viability after exposure to hepatotoxicity-inducing compounds, Test Example 6 Condition 1; type: cell-based; conditions: Hepatocyte, calculated from cell viability (ATP), exposure 168 hours from day 8 of culture, no bile acids, read-out: IC50 Condition 1 (present tissue)
Description: The resulting mixture was centrifuged at room temperature at 400×g for 2 minutes, the supernatant was removed, and the cells were resuspended in an HCM (product number “CC-3198”, manufactured by Lonza) containing 10 U/mL thrombin (product number “R4648”, manufactured by Sigma-Aldrich) and 1 v/v % endothelial cell growth supplement (ECGS) (product number “1052”, manufactured by Sciencell) to a cell density of 1.95×10^4 cells/2 μL to obtain a cell suspension.
2 μL of an HCM containing 5 mg/mL fibrinogen and 1 v/v % ECGS was added to a 48-well microplate (product number “3830-048”, manufactured by AGC Techno Glass) to form a droplet. The cell suspension was added to the interior of each droplet, and the 48-well microplate was then left to stand in an incubator for 40 minutes to form a fibrin gel in which the human hepatocytes were embedded. 0.5 mL of HCM containing 1 v/v % ECGS was added to each well in which the fibrin gel had been formed, and the cells were cultured under the conditions of 37° C. and 5% CO2. After the start of the culture, the medium was changed every two days.

[2] = test system: spheroids consisting only of human hepatocytes (PXB cells); assay: ATP assay (CellTiter Glo 3D) viability after exposure to hepatotoxicity-inducing compounds, Test Example 6 Condition 2; type: cell-based; conditions: calculated from cell viability (ATP), hepatocyte spheroids, exposure 168 hours, no bile acids, read-out: IC50 Condition 2 (spheroid)

SMILES	IC50 [1] [µM]	IC50 [2] [µM]
Cc1c(C)c2c(c(C)c1O)CCC(C)(COc1ccc(CC3SC(=O)NC3=O)cc1)O2 (centres unmarked) [Troglitazone]	92.9	202
O=C(O)Cc1ccccc1Nc1c(Cl)cccc1Cl [Diclofenac]	337	297
CC(=O)Nc1ccc(O)cc1 [Acetaminophen]	5510	4670
CC(=O)N1CCN(c2ccc(OCC3COC(Cn4ccnc4)(c4ccc(Cl)cc4Cl)O3)cc2)CC1 (centres unmarked) [Ketoconazole]	80.7	79.5
CC(C)C(=O)Nc1ccc([N+](=O)[O-])c(C(F)(F)F)c1 [Flutamide]	63.9	178
Cc1ccc(C(=O)c2cc(O)c(O)c([N+](=O)[O-])c2)cc1 [Tolcapone]	132	92.4
CN(C)CCCN1c2ccccc2Sc2ccc(Cl)cc21 [Chlorpromazine]	26.6	25
CCc1oc2ccccc2c1C(=O)c1cc(Br)c(O)c(Br)c1 [Benzbromarone]	249	256
C1CCC(C(CC2CCCCN2)C2CCCCC2)CC1 (centres unmarked) [Perhexiline]	3.6	5.6
CS(=O)(=O)CCNCc1ccc(-c2ccc3ncnc(Nc4ccc(OCc5cccc(F)c5)c(Cl)c4)c3c2)o1 [Lapatinib]	8.4	27.3
CS(=O)(=O)Nc1ccc([N+](=O)[O-])cc1Oc1ccccc1 [Nimesulide]	323	683
CCc1nn(CCCN2CCN(c3cccc(Cl)c3)CC2)c(=O)n1CCOc1ccccc1 [Nefazodone]	39.9	46.5
NC(=O)N1c2ccccc2C=Cc2ccccc21 [Carbamazepine]	843	978

From patent publication US20250368962A1, “THREE-DIMENSIONAL HEPATIC TISSUE AND METHOD OF MANUFACTURING THE SAME” (TOPPAN HOLDINGS INC., priority 2023, published 2025)
